Results as given in US20020132823A1, “Assay method” (priority 2001, published 2002).

Legend:
[1] = system: TNFα release from human peripheral blood mononuclear cells; experiment: TNFα release from human PBMCs (LPS/γ-interferon stimulated, ELISA); assay type: cell-based; settings: PBMC, LPS 5 μg/ml + γ-interferon 100 U/ml, 3 hours
Description: (§1) 2. TNFα and IL-1 Release from Human PBMCs
(§2) Cell Separation and Culture
(§3) All cell culture and ELISA work was done on 96 well plates (Costar). Mononuclear cells were prepared from the blood of healthy volunteers using ficoll-hypaque density separation according to the method of Hansel et al (Hansel TT et al. (1991) An improved immunomagnetic procedure for the isolation of highly purified human blood eosinophils. J. Imm. Methods 145, 105-110) and used at a concentration of 100,000 cells/well in RPMI 1640, 5% FCS (Gibco). Serial dilution of the test compound were made in DMSO and diluted with culture medium. Final DMSO concentration in the culture medium was 0.1%. […]
For ELISA determination, supernatants were diluted 1:1 and added into a plate coated with the anti humanTNF monoclonal antibody (357-101-4, clone 92030603 from European Collection of Animal Cell Cultures, antibody produced and purified within Novartis Pharma, 1 μg/ml in PBS) After overnight incubation, the plates were washed (4×) and biotinylated anti humanTNF monoclonal antibody 2-179-E11 (clone 92030602 (European Collection of Animal Cell Cultures), produced and purified in Novartis Pharma) was added to a final concentration of 1 μg/ml (100 μl/well). […] Color formation was monitored in a Bio-Tec ELx 808 plate reader at 405 nm in the kinetic mode for 30 minutes. […]

Recombinant human Prak = molecular target: T1, Recombinant human Prak (Homo sapiens, UniProt Q8IW41); experiment: In vitro kinase assay Prak (HSP27 phosphorylation, 33P-ATP); assay type: biochemical; settings: activated recombinant human Prak, His-HSP27 substrate, 1 h at room temperature
T1 construct: His6; made in house; host or cells: E. coli
T1 sequence (Q8IW41 1-471 isoform Q8IW41-2): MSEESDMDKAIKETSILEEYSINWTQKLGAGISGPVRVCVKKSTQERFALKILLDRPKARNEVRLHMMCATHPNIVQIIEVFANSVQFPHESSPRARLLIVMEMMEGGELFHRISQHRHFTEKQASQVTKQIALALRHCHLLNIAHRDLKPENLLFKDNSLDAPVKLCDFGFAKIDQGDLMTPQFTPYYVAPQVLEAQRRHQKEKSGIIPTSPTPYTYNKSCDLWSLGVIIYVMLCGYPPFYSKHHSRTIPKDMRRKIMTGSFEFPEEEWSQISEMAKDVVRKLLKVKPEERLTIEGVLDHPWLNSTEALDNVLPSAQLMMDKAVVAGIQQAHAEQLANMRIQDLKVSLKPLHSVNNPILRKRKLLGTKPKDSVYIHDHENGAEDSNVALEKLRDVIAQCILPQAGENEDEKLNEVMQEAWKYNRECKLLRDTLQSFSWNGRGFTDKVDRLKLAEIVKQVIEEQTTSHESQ
Description: Recombinant human Prak was expressed in E. coli as His6-tagged protein substantially as described for Mnk1 by Tschopp et al. (Tschopp et al. (2000) Phoshorylation of eIF-4E on Ser 209 in response to mitogenic and inflammatory stimuli is faithfully detected by specific antibodies. Molecular Cell Biology Res. Comm. 3, 205-211). Phospho-p38a and His6-Hsp27 was prepared substantially as described (New et al. and Tschopp et al. ibid). All kinase reactions were performed with the following reaction buffer. Kinase buffer (5×): 125 mM Hepes (Stock at 1M; Gibco #15630-056), 125 mM β-glycerophosphate (Sigma #G-6251):125 mM MgCl2 (Merck #5833); 0.5 mM Sodium orthovanadate (Sigma #5-6508), 10 mM DTT (Boehringer Mannheim #708992), pH 7.4. The (5×) kinase buffer is freshly prepared from 25× stock solution. DTT is stored frozen at −20° C. in small aliquots and added immediately before use.
Prior to the assay, recombinant Prak is phosphorylated by incubation with phospho-p38. […]
The assay is stopped after one hour of incubation at room temperature by the addition of 5 μl EDTA 0.5M. […] After washing and drying the membrane, incorporated label is quantified by liquid scintillation counting.

[2] = system: IL-6 production in human dermal fibroblasts; experiment: IL-6 production in human dermal fibroblasts (IL-1β stimulated, ELISA); assay type: cell-based; settings: Fibroblast, 1 μM compound, IL-1β 100 pg/ml, 16-17 h
Description: 4. IL-6 Production in Human Dermal Fibroblasts
Human dermal foreskin fibroblasts were obtained from Clonetics (CC-2509) and grown in FBM (Clonetics, CC-3131 ) including bFGF (1 ng/ml, CC-4065), insulin (5 μg/ml, CC-4021), and 2% FCS (CC-4101).
For induction of IL-6, cells were seeded at a density of 10^4 cells per well in a 48 well tissue cluster. The following day, cells were starved for 6-7 h in FBM containing 2% FCS. Compounds were added at final concentrations of 10 and 1 μM 30 min prior to stimulation with recombinant human IL-1β (100 pg/ml).
Cell supernatant was taken 16-17 h after stimulation and the amount of released IL-6 determined in a sandwich ELISA.
ELISA microtiter plates were coated with a murine anti-human IL-6 MAb (314-14 (Novartis Pharma; batch EN23,961, 5.5 mg/ml); 100 μl at 3 μg/ml) in PBS 0.02% NaN3 and incubated overnight at +4° C., The following day, microtiter plates were washed 4 times with PBS/0.05% Tween/0.02% NaN3 and blocked with 300 μl of PBS/3% bovine serum albumin (BSA)/0.02% NaN3 for 3 h. […] Plates were read in a microtiter reader (Bio-Rad) using filters of 405 and 490 nm. IL-6 levels in culture supernatants were calculated in reference to the standard curve using the cubic curve fit. Percentage inhibitions and IC50 values were calculated

[3] = system: IL-1β release from human peripheral blood mononuclear cells; experiment: IL-1β release from human PBMCs (LPS/γ-interferon stimulated, ELISA); assay type: cell-based; settings: PBMC, LPS 5 μg/ml + γ-interferon 100 U/ml, 4.5 hours
Description: as §1, §2
as §3, with “0.1%. Compound were preincubated with the cells for 30 minutes at 37° C., 5% CO2. Then, the cells were stimulated with LPS (5 μg/ml, Sigma) and γ-interferon (100 U/ml, Boehringer Mannheim) and cultured for 3 hours (for TNFα-determination) or 4.5 hours (for Il-1 β and Il-6 determination).” for “0.1%.”
ELISA microtiter plates were coated with a murine anti-human IL-1^2 MAb (Human IL-1^2 Cytoset (Biosource International Inc., #CHC1214), 100 μl at 1 μg/ml) in PBS 0.02% NaN3 and incubated overnight at +4° C., The following day, microtiter plates were washed 4 times with PBS/0.05% Tween/0.02% NaN3 and blocked with 300 μl of PBS/2% bovine serum albumin (BSA)/0.02% NaN3 for 3 h. […] Plates were read in a microtiter reader (Bio-Rad) using filters of 405 and 490 nm.

[4] = Cytotoxicity in THP-1 cells (MTT); assay type: cell-based; settings: human, THP-1 cells stimulated with LPS/IFNγ, LPS/IFN stimulated
Description: THP-1 cells are obtained from ATCC and stored in liquid nitrogen. Medium for growth of THP-1 cells: RPMI 1640(GIBCO)+10% fetal bovine serum (GIBCO)+L-glutamine (2 mM)+penicillin/streptomycin (100 U/ml) +β-mercaptoethanol (0.05 mM). Cell culture medium for THP-1 incubation: RPMI 1640(GIBCO)+5% fetal bovine serum (GIBCO)+L-glutamine (2 mM)+penicillin/streptomycin (100 U/ml)+β-mercaptoethanol (0.05 mM).
The solution for stimulation is prepared by mixing equal volumes of IFNγ (Boehringer Mannheim, 2000 U/ml) and LPS (Sigma, L8274, 100 μg/ml). The dye solution is prepared from 500 mg MTT (Sigma, M2128) in 100 ml phosphate buffered saline (PBS) and kept under sterile conditions at 4° C. Sodium dodecyl sulfate (SDS) solution (10%) is made from 50 g SDS (Bioprobe Systems) and 5 ml 1N HCl. The solution is made up to 500 ml with distilled water and kept at room temperature (precipitates in the fridge). All incubations are done at 37° C. in 5% CO2. […]
The absorbance at 540 nm is read with a microplate reader (Biotec 808 Elx). […]
Calculation of cytotoxicity: The absorbance corresponding to 100% cytotoxicity equals the absorbance of wells without cells (no MTT converted into the blue dye). The absorbance corresponding to no cytotoxicity is taken from wells without substance, but with control solvent. Percent cytotoxicity is calculated for each substance concentration.

- IC50 [1]: 2200 nM
- IC50 (Recombinant human Prak): 1100 nM
- IC50 [3]: 1100 nM
SMILES: O=S(=O)(c1ccc(Nc2nccc(N3CCCc4c(O)cccc43)n2)cc1)N1CCCCC1 [Compound A]
- inhibition at 1 µM [2]: 100%
- IC50 at 24 h [4]: > 30000 nM
